Reference: patent publication US20220160669A1, “PARENTERAL NUTRITION FORMULATION” (BAXTER INTERNATIONAL INC., priority 2020, published 2022)
“Also recorded” adds a separate entry of the source.

Tests used:
[1] = test system: Neonatal Yorkshire/Landrace cross bred piglets; test: Duodenal mucosal resistance (Ussing chamber), PN-fed neonatal piglets; format: in vivo, pig; design: key to Duodenal Mucosal Resistance (Ussing chamber): +++ indicate P < 0.01; ++ indicates P < 0.05; + indicates positive trends; = denotes no significant P value; − denotes negative trends; key to Duodenal mucosal resistance, Grouping (Fisher's LSD test): Groups that do not share a letter are significantly different; ab: Groups that do not share a letter are significantly different; b: Groups that do not share a letter are significantly different; conditions: for Mean duodenal mucosal resistance: N 12; for Duodenal mucosal resistance, Grouping (Fisher's LSD test): PN group a, EN group b; for Duodenal Mucosal Resistance (Ussing chamber): compared to standard PN (s-PN)
Excerpt: It is known also that there is a relationship between intestinal epithelial integrity and intestinal health (Thomson et al., The Ussing chamber system for measuring intestinal permeability in health and disease, BMC Gastroenterology 2019; 19:98). Impairment of barrier function has been linked to intestinal diseases such as, for example, ulcerative colitis and Crohn's disease. The so-called Ussing system offers an ex vivo measurement of the permeability or duodenal mucosal resistance. The system allows to measure said duodenal mucosal (transepithelial) resistance (TER), which can be determined to give an overall measurement of gut integrity. A low TER value is indicative of increased permeability. Prior studies have shown that decreased TER under inflammatory conditions was associated with down regulation of “sealing” tight junctional proteins. Accordingly, determining epithelial integrity by means of the Ussing chamber constituted one option to assess the influence of various nutritional options (e.g. EN vs PN) and various PN compositions (see Example 3.5) on gut health and specifically on local inflammatory incidents.
(§1) Neonatal Yorkshire/Landrace cross bred piglets (n=72; six at a time from the same litter, repeating 12 times) were obtained from Oak Hill Genetics (Ewing, Ill.) after 48-hour sow reared for colostrum consumption and iron supplementation.
Duodenal mucosal resistance was determined according to known methods and according to Tappenden et al., Short-Chain Fatty Acid-Supplemented Total Parenteral Nutrition Enhances Functional Adaptation to Intestinal Resection in Rats. Gastroenterology 1997; 112:792-802. Pieces of intestine (1 cm^2) were cut out, and the tissue was mounted as flat sheets in incubation chambers containing oxygenated Krebs' bicarbonate buffer (pH 7.4) at 37° C. Tissue discs were preincubated in this buffer for 15 minutes to allow equilibration at this temperature. After preincubation, the chambers were transferred to other beakers containing [^3H]inulin and various 14C probe molecules in oxygenated Krebs' bicarbonate (pH 7.4 and 37° C.). The concentration of solutes was 4, 8, 16, 32, or 64 mmol/L for D-glucose and 16 mmol/L for L-glucose. The preincubation and incubation solutions were mixed at identical stirring rates with circular magnetic bars, and the stirring rates were adjusted by means of a strobe light. A stirring rate of 600 rpm was selected to achieve low effective resistance of the intestinal unstirred water. The experiment was terminated by removing the chambers and quickly rinsing the tissue in cold saline for approximately 5 seconds. The exposed mucosal tissue was then cut out of the chamber with a circular steel punch. For all probes, the tissue was dried overnight in an oven at 55° C. The dry weight of the tissue was determined, the sample was saponified with 0.75N NaOH, scintillation fluid was added (Beckman Ready Solv HP; Beckman, Mississauga, ON), and radioactivity was determined by means of […] an external standardization technique to correct for variable quenching of the two isotopes. The mucosal weight was determined after scraping of the intestine from adjacent samples not used for uptake studies. The weight of the mucosa in the samples used to measure uptake was determined by multiplying the dry weight of the intestinal sample by the percentage of the intestinal wall comprised of mucosa.

[2] = Stability of butyrate derivative compositions (sterilization, shelf-life); conditions: for free butyric acid released during the sterilization of the bags: lipid chamber, GC-FID
[3] = test system: Neonatal Yorkshire/Landrace cross bred piglets; test: Cognitive assessment by eyeblink conditioning; format: in vivo, pig; design: key: + denotes a positive effect (compared to standard PN); ++ a very positive effect; − denotes no difference; conditions: compared to standard PN
Excerpt: Eyeblink conditioning is an established Pavlovian method to assess the cerebellum and associated brainstem circuitry with hippocampus involvement that are essential for learning and memory. The eyeblink conditioning procedure took place in a sound-attenuating chamber. A fan was inside the chamber and ran throughout the experiment for ambient noise (70 dB). A speaker mounted to the wall of the chamber delivered the tone conditioned stimulus (CS). A small plastic air puff delivery nozzle (San Diego Instruments, San Diego, Calif.) was secured at approximately 2 cm from the piglet's left eye to deliver the unconditioned stimulus (US). After adaptation to the conditioning apparatus on study day 3, a total of five CS-US conditioning sessions occurred on study days 4-8 following. Each conditioning session consisted of 90 CS-US paired trials and 10 CS alone trials for a total of 100 trials/session. Every tenth trial was a CS alone trial. The CS-US paired trials included: a 500 ms auditory CS (1 kHz, 85 dB tone), a 400 ms interstimulus interval (ISI), followed by a 100 ms corneal airpuff US (10 psi). Both the CS and US were co-terminated at the exact same time. The CS alone trials consisted of a 500 ms auditory CS (1 kHz, 85 dB tone) only. There were random inter-trial intervals of 20 seconds throughout each session. Each conditioning session lasted no longer than 35 minutes. The San Diego Instruments eyeblink software was used to record conditioning session moment-to-moment infrared-reflectance data.

[4] = test system: Pro-inflammatory cytokines; test: Pro-inflammatory cytokines, summary (site not stated); format: in vivo, pig; design: key: + denotes a positive effect (compared to standard PN); ++ a very positive effect; − denotes no difference; conditions: compared to standard PN
Excerpt: as §1
The influence of the respective supplements on inflammation was investigated by determining Il-6, Il-1beta, TNF-alpha and Il-10 serum levels in the intervention groups compared to EN and PN according to Milo et al., Effects of Short-Chain Fatty Acid-Supplemented Total Parenteral Nutrition on Intestinal Pro-Inflammatory Cytokine Abundance. Digestive Diseases and Sciences 2002; 47:2049-2055. Jejunal and ileal samples were homogenized in double-distilled water, and the Bradford protein assay (Biorad, Hercules, Calif., USA) was performed on homogenate and plasma samples. Protein (30 μg) from each sample was denatured by boiling, and proteins were separated by size using 12.5% sodium dodecyl sulfate polyacrylamide gel electrophoresis. Separated proteins were transferred to polyvinylidene difluoride membranes (Biorad) using a semidry transfer apparatus (Biorad). Western blot analysis for TNF-alpha, IL-1beta, Il-10 and IL-6 was performed using porcine-specific polyclonal antibodies (Endogen, Woburn, Mass., USA). A mouse anti-pig monoclonal TNF-alpha antibody was used to detect TNF-alpha ([…]). Rabbit anti-pig polyclonal antibodies specific for IL-1beta and IL-6 were used to detect IL-1beta (17,500 kDa), Il-10 (18,600 kDa) and IL-6 (26,000 kDa). Membranes were developed using the Opti-4CN kit (Biorad) and photographed using the FOTO/Analyst Image Analysis System (Fotodyne, Inc., Hartland, Wis., USA). Densitometry of TNF-alpha, IL-1beta, IL-6, and Il-10 was performed using Collage Image Analysis Software 4.0 (Fotodyne, Inc.). Results are shown in FIG. 15 (Il-6), FIG. 16 (Illbeta), FIG. 17 (TNF-alpha) and FIG. 18 (Il-10).

Compound | duodenal mucosal resistance, in words ([1]; 10 mmol/L TPN (Groups A, C, D)) | Mean duodenal mucosal resistance ([1]; 10 mmol/L TPN (Groups A, C, D)) | Duodenal mucosal resistance, Grouping (Fisher's LSD test) ([1]; 10 mmol/L TPN (Groups A, C, D)) | duodenal mucosal resistance, in words ([1]; 10 mmol/L TPN (Groups A, C, D), listed as C) | Duodenal Mucosal Resistance (Ussing chamber) ([1]; 10 mmol/L) | stable shelf-life ([2]; 25° C. and 40% relative humidity (RH), in an amino acid formulation) | stability during production and sterilization ([2]; amino acid chamber / amino acid formulation) | concentration at which aqueous composition is producible and stable ([2]; aqueous arginine butyrate composition) | Cognitive ([3]; 10 mmol/L in PN) | Pro-inflammatory cytokines ([4]; 10 mmol/L in PN) | duodenal mucosal resistance, in words ([1]; 10 mmol/L TPN (Groups A, C, D), listed as D) | free butyric acid released during the sterilization of the bags [2] | duodenal mucosal resistance, in words ([1]; 30 mmol/L TPN (Group B)) | Mean duodenal mucosal resistance ([1]; 30 mmol/L TPN (Group B)) | Duodenal mucosal resistance, Grouping (Fisher's LSD test) ([1]; 30 mmol/L TPN (Group B)) | Duodenal Mucosal Resistance (Ussing chamber) ([1]; 30 mmol/L) | Cognitive ([3]; 30 mmol/L in PN) | Pro-inflammatory cytokines ([4]; 30 mmol/L in PN)
L-arginine, butanoate (3:4) [Arginine butyrate] | significantly lower loss of mucosal resistance compared to the other intervention groups | 8.2593 | b | significantly different from the PN | ++^2 (++ indicates P < 0.05) | at least 12 months | stable during production, sterilization | up to 5500 mg/L | − | ++ |  |  |  |  |  |  |  | 
CCCCCCCCCCCCCCCC(=O)OCC(COC(=O)CCC)OC(=O)CCCCCCCCCCCCCCC (centres unmarked) [1,2-Dipalmitoyl 3-butyryl glycerol] |  | 15.8264 | ab |  |  |  |  |  | − | + | significantly different from the PN; also recorded: almost as good as in Group E | only very limited amounts |  |  |  |  |  | 
CCCC(=O)OCC(COC(=O)CCC)OC(=O)CCC [Tributyrin] | significantly different from the PN | 21.8442 | ab |  | = |  |  |  | − | − |  | only very limited amounts | significantly different from the PN | 16.0234 | ab | = | − | +
